The source of these data is ChEMBL document CHEMBL4483862, “Open-source discovery of chemical leads for next-generation chemoprotective antimalarials” (2018).

The experiment has as its system Plasmodium berghei. Nature of the experiment: Luciferase/luciferin-expressing antifolate-resistant parasites were used to infect a culture of HepG2 cells that were pre-incubated with compounds. Infected hepatocytes emit light due to the luciferase reaction. Assay results are presented as the percent inhibition of light emission compared to control. […]. It counts as functional. The note with it: sporozoite; for IC90: read-out: LUCIFERASE INFECTION ASSAY - IC90.

The mark [1] stands for this setting: read-out: LUCIFERASE INFECTION ASSAY - IC50.

Broadly, the IC50 is the concentration at which inhibition is half-maximal. The IC90 is the point of the concentration-response curve where the effect stands at 90%. Consider `CCn1c(NC(=O)Cc2csc(-n3c(C)ccc3C)n2)nc2ccccc21`, for which the IC90 was above 10 µM. The IC50 (HEPG2TOX_HILL_SLOPE 6.15, HEPG2TOX_R_SQUARED 0.156, PBLUC_HILL_SLOPE 14.1, PBLUC_R_SQUARED 0.172, read-out: LUCIFERASE INFECTION ASSAY - IC50) is 8.84 µM.
`O=S(=O)(CCSc1ccc(C(F)(F)F)cn1)c1ccc(OC(F)(F)F)cc1`: the IC90 was above 7.65 µM. In addition, the IC50 under setting [1] was above 7.65 µM.
Take `COc1ccc(CCN2C(=O)N(C(C)C)C(=O)C23CCN(Cc2cc4ccccc4[nH]2)CC3)cc1`: the IC90 was determined as 6.63 µM. Moreover, where the note is “HEPG2TOX_HILL_SLOPE 8.55, HEPG2TOX_R_SQUARED 0.942, PBLUC_HILL_SLOPE 15.5, PBLUC_R_SQUARED 0.628, read-out: LUCIFERASE INFECTION ASSAY - IC50”, the IC50 is 5.75 µM.
Take `CC(=O)Nc1ccc(-c2cnc3ccc(-c4cccc(Oc5ccccc5)c4)nn23)cc1`: the IC90 came to 3.35 µM. The IC50 (HEPG2TOX_HILL_SLOPE 2.48, HEPG2TOX_R_SQUARED 0.914, PBLUC_HILL_SLOPE 2.88, PBLUC_R_SQUARED 0.663, read-out: LUCIFERASE INFECTION ASSAY - IC50) is 1.56 µM.
As for `C=CCn1c(C)cc(C(=O)Cn2c(=O)c(=O)n(Cc3ccccc3)c3ccc(Cl)cc32)c1C`, the IC90 is above 10 µM. Also, the IC50 under setting [1] was above 10 µM.
Take `CC(=O)N(c1nc(/C=C2\NC(=S)NC2=O)cs1)c1c(C)cccc1C`: the IC90 was above 10 µM. The IC50 under setting [1] is 8.24 µM.
For `O=C(CSc1ncnc2ccccc12)NN1C(=O)NC(c2ccccc2)(c2ccccc2)C1=O`, the IC90 was above 10 µM. Moreover, the IC50 under setting [1] is above 10 µM.
Regarding `CCn1c(NC(=O)Cc2ccc(C)c(OC)c2)nc2ccccc21`, the IC90 was 8.25 µM. Also, the IC50 (PBLUC_HILL_SLOPE 4.04, PBLUC_R_SQUARED 0.646, read-out: LUCIFERASE INFECTION ASSAY - IC50) came out at 4.79 µM.
On to `O=C(COC(=O)/C=C/c1ccc(I)o1)Nc1cc(S(=O)(=O)N2CCCCC2)ccc1Cl`, for which the IC90 is above 10 µM. The IC50 (FFLUC_HILL_SLOPE 7.36, FFLUC_R_SQUARED 0.327, read-out: LUCIFERASE INFECTION ASSAY - IC50) was above 10 µM.
Take `CCn1c(C)nc2cc(C(=O)NNS(=O)(=O)c3cccc(Cl)c3Cl)ccc21.O=S(=O)(O)c1cccc(Cl)c1Cl`: the IC90 is above 10 µM. Moreover, under setting [1], the IC50 is above 10 µM.
In the case of `COC(=O)c1cccc(C(=O)Nc2nccn2Cc2ccccc2)c1`, the IC90 turned out to be 9.3 µM. Where the note is “PBLUC_HILL_SLOPE 5.71, PBLUC_R_SQUARED 0.673, read-out: LUCIFERASE INFECTION ASSAY - IC50”, the IC50 turned out to be 6.33 µM.
For `COc1ccc2c(-c3ccccc3)cc(SC(c3ccccc3)c3ccccc3)nc2c1`, the IC90 is above 10 µM. Moreover, the IC50 (FFLUC_HILL_SLOPE 74, FFLUC_R_SQUARED 0.292, read-out: LUCIFERASE INFECTION ASSAY - IC50) was above 10 µM.
On to `O=C1COc2ccc(-c3cs/c(=N\c4cc(S(=O)(=O)N5CCOCC5)ccc4Cl)n3C3CC3)cc2N1`, for which the IC90 is above 10 µM. Also, the IC50 (FFLUC_HILL_SLOPE 592, FFLUC_R_SQUARED 0.24, HEPG2TOX_HILL_SLOPE 8.86, HEPG2TOX_R_SQUARED 0.733, PBLUC_HILL_SLOPE 5.17, PBLUC_R_SQUARED 0.255, read-out: LUCIFERASE INFECTION ASSAY - IC50) worked out at 8.04 µM.
Consider `CCCCNC(=O)c1c(NC(=O)COc2ccccc2)nc2ccccn12`, for which the IC90 was above 9.01 µM. Moreover, the IC50 (FFLUC_HILL_SLOPE 15.1, FFLUC_R_SQUARED 0.601, PBLUC_HILL_SLOPE 2.91, PBLUC_R_SQUARED 0.515, read-out: LUCIFERASE INFECTION ASSAY - IC50) was determined as 5.13 µM.
Regarding `CC1(C(=O)NCc2cccnc2)CCN1Cc1ccccc1Cl` (centres undefined), the IC90 was above 10 µM. Further, the IC50 (PBLUC_HILL_SLOPE 2.38, PBLUC_R_SQUARED 0.474, read-out: LUCIFERASE INFECTION ASSAY - IC50) was determined as 4.27 µM.
As for `Clc1ccc(-c2cnc3cnc(-c4cccs4)cn23)cc1`, the IC90 was found to be 3.99 µM. For the same molecule, the IC50 (PBLUC_HILL_SLOPE 17.9, PBLUC_R_SQUARED 0.612, read-out: LUCIFERASE INFECTION ASSAY - IC50) came out at 3.53 µM.
On to `C/C(=N\NC(=N)N)c1ccc(Br)cc1`, for which the IC90 is above 12.9 µM. Besides, the half-inhibitory concentration (IC50) (HEPG2TOX_HILL_SLOPE 2.15, HEPG2TOX_R_SQUARED 0.936, PBLUC_HILL_SLOPE 0.739, PBLUC_R_SQUARED 0.608, read-out: LUCIFERASE INFECTION ASSAY - IC50) came to 5.11 µM.
Consider `Cc1ccc(CSc2nnc(NCc3ccccc3)s2)cc1`, for which the IC90 is above 10 µM. Further, the IC50 (HEPG2TOX_HILL_SLOPE 6.81, HEPG2TOX_R_SQUARED 0.677, read-out: LUCIFERASE INFECTION ASSAY - IC50) is above 10 µM.
As for `FC(F)(F)c1nc2ccccc2n1-c1cc(-c2ccccc2)n[nH]1`, the IC90 was above 10 µM. Besides, for the setting “HEPG2TOX_HILL_SLOPE 5.49, HEPG2TOX_R_SQUARED 0.606, read-out: LUCIFERASE INFECTION ASSAY - IC50”, the IC50 was above 10 µM.
Take `O=C(CNc1cc(C(F)(F)F)ccc1Oc1ccc(Br)cc1)NCCC1=CCCCC1`: the IC90 is above 10 µM. In addition, for the setting “FFLUC_HILL_SLOPE 3.47, FFLUC_R_SQUARED 0.173, PBLUC_HILL_SLOPE 15.8, PBLUC_R_SQUARED 0.057, read-out: LUCIFERASE INFECTION ASSAY - IC50”, the IC50 was 9.79 µM.
On to `COc1ccc(C)cc1-n1c(=O)c2ccccc2n2c(SC)nnc12`, for which the IC90 was above 10 µM. Moreover, the IC50 under setting [1] is above 10 µM.
Regarding `N=C(N)N/N=C/c1ccc(N(c2ccccc2)c2ccccc2)cc1`, the IC90 amounted to 9.95 µM. Also, the IC50 under setting [1] was found to be 8.03 µM.
Turning to `CC1CCCCC1NC(=O)c1c[nH]c2ccc(Br)cc12` (centres undefined), the IC90 was above 10 µM. The IC50 under setting [1] was above 10 µM.
Consider `Fc1cccc(-c2cc3c(Nc4ccccn4)nccc3[nH]2)c1`, for which the IC90 is 9.13 µM. For the same molecule, the IC50 (HEPG2TOX_HILL_SLOPE 13.8, HEPG2TOX_R_SQUARED 0.872, PBLUC_HILL_SLOPE 30.4, PBLUC_R_SQUARED 0.0497, read-out: LUCIFERASE INFECTION ASSAY - IC50) was 8.5 µM.
As for `O/N=C(\c1ccc(Cl)cc1)c1cc2ccccc2o1`, the IC90 was above 12.1 µM. Further, the IC50 (PBLUC_HILL_SLOPE 1.16, PBLUC_R_SQUARED 0.26, read-out: LUCIFERASE INFECTION ASSAY - IC50) was found to be 6.29 µM.
In the case of `CCc1c(C(=O)Nc2nc(C)cs2)cnn1-c1cccc(Cl)c1`, the IC90 is 1.14 µM. Moreover, under “HEPG2TOX_HILL_SLOPE 7.81, HEPG2TOX_R_SQUARED 0.827, PBLUC_HILL_SLOPE 1.59, PBLUC_R_SQUARED 0.7, read-out: LUCIFERASE INFECTION ASSAY - IC50”, the IC50 was 0.286 µM.
In the case of `Cc1ccc(-c2nc3c(c(SCCN4CCCC4)n2)COC(C)(C)C3)cc1`, the IC90 was above 8.6 µM. Also, the IC50 (PBLUC_HILL_SLOPE 2.75, PBLUC_R_SQUARED 0.0927, read-out: LUCIFERASE INFECTION ASSAY - IC50) was found to be 7.13 µM.
